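Results reflect a 48-hour exposure of cells in 96-well plates to compound at five concentrations. Here, GI50 denotes the concentration required for 50% inhibition of growth. Definition used: TGI = concentration required for complete inhibition of growth.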
Columns and labels:
Assay in all cases: growth of human tumour cells (NCI), 48 h
HOP-62 NSCLC = test system: HOP-62 NSCLC
SNB-19 CNS = test system: SNB-19 CNS
SK-MEL-5 melanoma = test system: SK-MEL-5 melanoma
SF-539 CNS = test system: SF-539 CNS
OVCAR-8 ovarian = test system: OVCAR-8 ovarian
SK-MEL-28 melanoma = test system: SK-MEL-28 melanoma
K-562 leukemia = test system: K-562 leukemia
HL-60(TB) leukemia = test system: HL-60(TB) leukemia
MDA-MB-231 breast = test system: MDA-MB-231 breast
MDA-N = test system: MDA-N

## O=C1/C(=C/c2ccccc2)CCCC/C1=C\c1ccccc1
HOP-62 NSCLC
  TGI: > 100 µM
SNB-19 CNS
  TGI: > 100 µM
SK-MEL-5 melanoma
  TGI: 70.4 µM
SF-539 CNS
  TGI: > 100 µM
OVCAR-8 ovarian
  TGI: > 100 µM
SK-MEL-28 melanoma
  TGI: > 100 µM

## COc1ccc2c(c1)/C(=C\c1cccc(/C=C3/C(=O)Nc4ccc(OC)cc43)n1)C(=O)N2
K-562 leukemia
  TGI: 2.02 µM
HL-60(TB) leukemia
  TGI: 2.05 µM
HOP-62 NSCLC
  TGI: 5.07 µM
SNB-19 CNS
  TGI: 3.38 µM
SK-MEL-5 melanoma
  TGI: 2.24 µM
SF-539 CNS
  TGI: 5.7 µM
MDA-MB-231 breast
  GI50: 873 nM
  TGI: 4.78 µM
OVCAR-8 ovarian
  TGI: > 25.4 µM

## COC(=O)N/N=C(\C)C(CN1CCOCC1)C(c1ccccc1)c1cc2ccccc2oc1=O (stereo unspecified)
K-562 leukemia
  TGI: > 100 µM
HL-60(TB) leukemia
  TGI: 85.3 µM
HOP-62 NSCLC
  TGI: > 100 µM
SNB-19 CNS
  TGI: > 100 µM
SK-MEL-5 melanoma
  TGI: > 100 µM
SF-539 CNS
  TGI: > 100 µM
MDA-MB-231 breast
  TGI: > 100 µM
OVCAR-8 ovarian
  TGI: > 100 µM
SK-MEL-28 melanoma
  TGI: > 100 µM

## CCOC(=O)/C(=C\NC(C)(C)C)c1nc2ccccc2o1
HL-60(TB) leukemia
  TGI: 19.1 µM
HOP-62 NSCLC
  TGI: > 100 µM
SNB-19 CNS
  TGI: > 100 µM
SK-MEL-5 melanoma
  TGI: 26 µM
SF-539 CNS
  TGI: > 100 µM
OVCAR-8 ovarian
  TGI: > 100 µM
MDA-N
  TGI: > 100 µM
SK-MEL-28 melanoma
  TGI: > 100 µM

## CC(Oc1ccc(Cl)cc1Cl)C(=O)NN1C(=O)CSC1c1ccc(Cl)cc1 (stereo unspecified)
K-562 leukemia
  TGI: > 100 µM
HL-60(TB) leukemia
  TGI: 84.7 µM
HOP-62 NSCLC
  TGI: > 100 µM
SNB-19 CNS
  TGI: > 100 µM
SK-MEL-5 melanoma
  TGI: > 100 µM
SF-539 CNS
  TGI: 43.9 µM
MDA-MB-231 breast
  TGI: 97.4 µM
OVCAR-8 ovarian
  TGI: > 100 µM
SK-MEL-28 melanoma
  TGI: > 100 µM

## C/C(=C\COP(=O)(O)OP(=O)(O)O)CC/C=C(\C)CNc1ccc([N+](=O)[O-])cc1
K-562 leukemia
  TGI: > 100 µM
HL-60(TB) leukemia
  TGI: > 100 µM
HOP-62 NSCLC
  TGI: > 100 µM
SNB-19 CNS
  TGI: > 100 µM
SK-MEL-5 melanoma
  TGI: > 100 µM
SF-539 CNS
  TGI: > 100 µM
MDA-MB-231 breast
  TGI: > 100 µM
OVCAR-8 ovarian
  TGI: > 100 µM
SK-MEL-28 melanoma
  TGI: > 100 µM

## COC(=O)/C(=C/CC(N=C(c1ccccc1)c1ccccc1)C(=O)OC)N=C(c1ccccc1)c1ccccc1 (stereo unspecified)
K-562 leukemia
  TGI: > 100 µM
HL-60(TB) leukemia
  TGI: > 100 µM
HOP-62 NSCLC
  TGI: > 100 µM
SNB-19 CNS
  TGI: > 100 µM
SK-MEL-5 melanoma
  TGI: > 100 µM
OVCAR-8 ovarian
  TGI: > 100 µM
SK-MEL-28 melanoma
  TGI: > 100 µM

## N#CC1=C(N)Nc2nc3ccccc3n2C1c1ccccc1 (stereo unspecified)
K-562 leukemia
  TGI: > 100 µM
HL-60(TB) leukemia
  TGI: > 100 µM
HOP-62 NSCLC
  TGI: > 100 µM
SNB-19 CNS
  TGI: > 100 µM
SK-MEL-5 melanoma
  TGI: > 100 µM
SF-539 CNS
  TGI: > 100 µM
MDA-MB-231 breast
  TGI: > 100 µM
OVCAR-8 ovarian
  TGI: > 100 µM

## CSC(=N)N1N=C2c3ccccc3CC[C@@H]2[C@@H]1c1ccccc1
K-562 leukemia
  TGI: 39.7 µM
HL-60(TB) leukemia
  TGI: 34.6 µM
HOP-62 NSCLC
  TGI: 32.8 µM
SNB-19 CNS
  TGI: 34 µM
SF-539 CNS
  TGI: 27.2 µM
OVCAR-8 ovarian
  TGI: 29.1 µM
SK-MEL-28 melanoma
  TGI: 29.8 µM

## Cc1cc2nc3c(C#N)c(-c4ccccc4)cc(Nc4ccc(F)cc4)n3c2cc1C
HOP-62 NSCLC
  TGI: 36.6 µM
SK-MEL-5 melanoma
  TGI: > 100 µM
SF-539 CNS
  TGI: 34.8 µM
MDA-MB-231 breast
  TGI: 51.1 µM
OVCAR-8 ovarian
  TGI: 25.5 µM
SK-MEL-28 melanoma
  TGI: > 100 µM

## CCOn1cc(C2=C(c3c[nH]c4ccccc34)C(=O)NC2=O)c2ccccc21
K-562 leukemia
  GI50: < 13.9 nM
  TGI: > 33.1 µM
HL-60(TB) leukemia
  GI50: < 17.6 nM
HOP-62 NSCLC
  GI50: < 10 nM
  TGI: 18.5 µM
SNB-19 CNS
  GI50: < 26.4 nM
  TGI: 20.5 µM
SK-MEL-5 melanoma
  GI50: < 10 nM
  TGI: < 0.01 µM
SF-539 CNS
  GI50: < 10 nM
  TGI: < 0.01 µM
MDA-MB-231 breast
  GI50: 806 nM
  TGI: 26.4 µM
OVCAR-8 ovarian
  GI50: 93.5 nM
  TGI: 20.3 µM
SK-MEL-28 melanoma
  GI50: 2050 nM
  TGI: 25.3 µM

## CCOC(=O)/C=C1\Nc2ccccc2-n2nnnc21
K-562 leukemia
  TGI: > 100 µM
HL-60(TB) leukemia
  TGI: > 100 µM
HOP-62 NSCLC
  TGI: > 100 µM
SNB-19 CNS
  TGI: > 100 µM
SK-MEL-5 melanoma
  TGI: > 100 µM
SF-539 CNS
  TGI: > 100 µM
OVCAR-8 ovarian
  TGI: > 100 µM
SK-MEL-28 melanoma
  TGI: > 100 µM

## CN(CCO)c1nc2c(c(=O)[nH]1)CNCC2
K-562 leukemia
  TGI: > 100 µM
HL-60(TB) leukemia
  TGI: > 100 µM
HOP-62 NSCLC
  TGI: > 100 µM
SNB-19 CNS
  TGI: > 100 µM
SK-MEL-5 melanoma
  TGI: > 100 µM
SF-539 CNS
  TGI: > 100 µM
OVCAR-8 ovarian
  TGI: > 100 µM
SK-MEL-28 melanoma
  TGI: > 100 µM

## COc1cc(-c2c(C)c(C)nc(OC)c2C#N)cc(OC)c1OC
K-562 leukemia
  TGI: > 100 µM
HL-60(TB) leukemia
  TGI: > 100 µM
HOP-62 NSCLC
  TGI: > 100 µM
SNB-19 CNS
  TGI: > 100 µM
SK-MEL-5 melanoma
  TGI: > 100 µM
SF-539 CNS
  TGI: > 100 µM
OVCAR-8 ovarian
  TGI: > 100 µM
SK-MEL-28 melanoma
  TGI: > 100 µM

## COc1cc(CCCC(O)COc2cccc3c2C2(O)CCCCCC32)cc(OC)c1 (stereo unspecified)
K-562 leukemia
  TGI: 31.1 µM
HL-60(TB) leukemia
  TGI: 45.9 µM
HOP-62 NSCLC
  TGI: 28.7 µM
SNB-19 CNS
  TGI: 32 µM
SK-MEL-5 melanoma
  TGI: 20.5 µM
SF-539 CNS
  TGI: 28.1 µM
OVCAR-8 ovarian
  TGI: 37.8 µM
SK-MEL-28 melanoma
  TGI: 31.1 µM

## O=S1(=O)OCCCOS(=O)(=O)C1Br
HOP-62 NSCLC
  TGI: > 100 µM
SNB-19 CNS
  TGI: > 100 µM
SK-MEL-5 melanoma
  TGI: > 100 µM
SF-539 CNS
  TGI: > 100 µM
OVCAR-8 ovarian
  TGI: > 100 µM
MDA-N
  TGI: > 100 µM
SK-MEL-28 melanoma
  TGI: > 100 µM

## CSc1ccc(-c2cc(-c3nc4ccccc4[nH]3)nc3[nH]c(-c4nc5ccccc5[nH]4)cc(=O)c23)cc1
K-562 leukemia
  TGI: > 100 µM
HL-60(TB) leukemia
  TGI: > 100 µM
HOP-62 NSCLC
  TGI: > 100 µM
SNB-19 CNS
  TGI: > 100 µM
SF-539 CNS
  TGI: > 100 µM
OVCAR-8 ovarian
  TGI: > 100 µM

## Nc1ccc(C(=O)NN2C(=O)C(Cl)C2c2ccccc2O)cc1 (stereo unspecified)
K-562 leukemia
  TGI: > 100 µM
HL-60(TB) leukemia
  TGI: 48 µM
HOP-62 NSCLC
  TGI: > 100 µM
SNB-19 CNS
  TGI: > 100 µM
SK-MEL-5 melanoma
  TGI: > 100 µM
SF-539 CNS
  TGI: > 100 µM
OVCAR-8 ovarian
  TGI: > 100 µM
SK-MEL-28 melanoma
  TGI: > 100 µM

## Cc1nc2ccc(N=NN(C)C)cc2[nH]1
HOP-62 NSCLC
  TGI: > 100 µM
SNB-19 CNS
  TGI: > 100 µM
SK-MEL-5 melanoma
  TGI: > 100 µM
MDA-MB-231 breast
  TGI: > 100 µM
OVCAR-8 ovarian
  TGI: > 100 µM
MDA-N
  TGI: > 100 µM
SK-MEL-28 melanoma
  TGI: > 100 µM

## CCOC(=O)C1C(c2ccc([N+](=O)[O-])cc2)NC(c2ccc([N+](=O)[O-])cc2)C(C(=O)OC)S1(=O)=O (stereo unspecified)
K-562 leukemia
  TGI: > 100 µM
HL-60(TB) leukemia
  TGI: > 100 µM
HOP-62 NSCLC
  TGI: > 100 µM
SNB-19 CNS
  TGI: > 100 µM
OVCAR-8 ovarian
  TGI: > 100 µM
SK-MEL-28 melanoma
  TGI: > 100 µM
